What was measured:
[1] = inhibitors of NFkB activation in CF airway cells, SAR follow-up, KKLEB cells, panel, IL8 HTRF, NFkB-GFP (AID 651592); details: PAF/TNFa-induced NFkB-GFP / IL8 HTRF, CF-PAF assay;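 also: immortalized cystic fibrosis airway epithelial KKLEB cells with an NF-kB GFP reporter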
IL8 = test: as above; details: PAF/TNFa-induced NFkB-GFP / IL8 HTRF, mean of runs, mean IC50 across panel replicates
[2] = molecular target: Interleukin-8 (Homo sapiens) (UniProt P10145); test: as above; details: PAF/TNFa-induced NFkB-GFP / IL8 HTRF
[3] = mean of runs, mean IC50 across panel replicates

Chain of Interleukin-8 (Homo sapiens) (P10145 whole entry, looked up): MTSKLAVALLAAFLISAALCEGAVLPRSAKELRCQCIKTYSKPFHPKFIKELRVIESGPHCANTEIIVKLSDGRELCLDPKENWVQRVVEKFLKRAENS

IC50 [1, 3] | IC50 ([1]; run 1) | IC50 ([1]; run 2) | IC50 ([1]; run 3) | IC50 ([1]; run 4) | IC50 ([1]; run 5) | IC50 ([1]; run 6) | IC50 (IL8; PAF-induced) | IC50 (IL8; TNFa-induced) | IC50 ([2]; IL8, PAF-induced, run 1) | IC50 ([2]; IL8, PAF-induced, run 2) | IC50 ([2]; IL8, PAF-induced, run 3) | IC50 ([2]; IL8, PAF-induced, run 4) | IC50 ([2]; IL8, PAF-induced, run 5) | IC50 ([2]; IL8, PAF-induced, run 6) | IC50 ([2]; IL8, TNFa-induced, run 1) | IC50 ([2]; IL8, TNFa-induced, run 2) | IC50 ([2]; IL8, TNFa-induced, run 3) | IC50 ([2]; IL8, TNFa-induced, run 4) | IC50 ([2]; IL8, TNFa-induced, run 5) | Structure (SMILES) | also measured
39.7 µM | > 66 µM | 26 µM | 43.2 µM | > 66 µM | 13.4 µM | 23.8 µM | 4.49 µM | > 66 µM | 2.68 µM | 3.24 µM | 3.47 µM | 3.84 µM | 5.83 µM | 7.9 µM | > 66 µM | > 66 µM | > 66 µM | > 66 µM | > 66 µM | Cc1ccc(NCc2cc3c(C(C)(C)C)nn(-c4ccccc4)c3[nH]c2=O)cc1 | IC50 ([2]; IL8, TNFa-induced, run 6): > 66 µM
> 66 µM | > 66 µM | > 66 µM | > 66 µM | > 66 µM | > 66 µM | > 66 µM | > 66 µM | > 66 µM | > 66 µM | > 66 µM | > 66 µM | > 66 µM | > 66 µM | > 66 µM | > 66 µM | > 66 µM | > 66 µM | > 66 µM | > 66 µM | O=C(Nc1ccc(N2CCN(C(=O)c3ccc(F)cc3)CC2)cc1)c1ccncc1 | IC50 ([2]; IL8, TNFa-induced, run 6): > 66 µM
3.75 µM | 2.7 µM | 3.16 µM | 3.43 µM | 2.93 µM | 4.5 µM | 5.77 µM | 9.06 µM | 60.9 µM | 4.34 µM | 7.55 µM | 9.86 µM | 0.898 µM | 7.37 µM | 24.3 µM | > 66 µM | > 66 µM | 35.6 µM | > 66 µM | > 66 µM | O=C(Nc1ccc(N2CCN(C(=O)c3ccccc3)CC2)cc1)c1cncc(Br)c1 | IC50 ([2]; IL8, TNFa-induced, run 6): > 66 µM
39.7 µM | 32.7 µM | 38.2 µM | 48.1 µM | > 66 µM | > 66 µM | > 66 µM | 55.8 µM | > 66 µM | > 66 µM | > 66 µM | 4.58 µM | > 66 µM | > 66 µM | > 66 µM | > 66 µM | > 66 µM | > 66 µM | > 66 µM | > 66 µM | O=C(Nc1ccc(N2CCN(C(=O)c3ccccc3)CC2)cc1)c1ccncc1 | IC50 ([2]; IL8, TNFa-induced, run 6): > 66 µM
31.8 µM | 15.6 µM | 16.3 µM | 17.9 µM | > 66 µM | > 66 µM | 8.71 µM | 55.8 µM | > 66 µM | > 66 µM | > 66 µM | 55.8 µM | > 66 µM | > 66 µM | > 66 µM | > 66 µM | > 66 µM | > 66 µM | > 66 µM | > 66 µM | O=C(Nc1ccc(N2CCN(C(=O)c3ccccc3F)CC2)cc1)c1ccncc1 | IC50 ([2]; IL8, TNFa-induced, run 6): > 66 µM

Continued, compound first:

Structure (SMILES) | IC50 [1, 3] | IC50 ([1]; run 1) | IC50 ([1]; run 2) | IC50 ([1]; run 3) | IC50 ([1]; run 4) | IC50 ([1]; run 5) | IC50 ([1]; run 6) | IC50 (IL8; PAF-induced) | IC50 (IL8; TNFa-induced) | IC50 ([2]; IL8, PAF-induced, run 1) | IC50 ([2]; IL8, PAF-induced, run 2) | IC50 ([2]; IL8, PAF-induced, run 3) | IC50 ([2]; IL8, PAF-induced, run 4) | IC50 ([2]; IL8, PAF-induced, run 5) | IC50 ([2]; IL8, PAF-induced, run 6) | IC50 ([2]; IL8, TNFa-induced, run 1) | IC50 ([2]; IL8, TNFa-induced, run 2) | IC50 ([2]; IL8, TNFa-induced, run 3) | IC50 ([2]; IL8, TNFa-induced, run 4) | IC50 ([2]; IL8, TNFa-induced, run 5) | also measured
O=C(Nc1ccc(N2CCN(C(=O)c3ccccc3F)CC2)cc1)c1ccccn1 | 45.7 µM | 32.5 µM | 40.3 µM | 64.3 µM | > 66 µM | > 66 µM | > 66 µM | > 66 µM | > 66 µM | > 66 µM | > 66 µM | > 66 µM | > 66 µM | > 66 µM | > 66 µM | > 66 µM | > 66 µM | > 66 µM | > 66 µM | > 66 µM | IC50 ([2]; IL8, TNFa-induced, run 6): > 66 µM
O=C(Nc1ccc(N2CCN(C(=O)c3ccccc3Cl)CC2)cc1)c1cccc(Br)c1 | 39.8 µM | > 66 µM | 16.8 µM | 24.3 µM | > 66 µM | > 66 µM | > 66 µM | 55 µM | > 66 µM | > 66 µM | > 66 µM | > 66 µM | > 66 µM | > 66 µM | > 66 µM | > 66 µM | > 66 µM | > 66 µM | > 66 µM | > 66 µM | IC50 ([2]; IL8, TNFa-induced, run 6): > 66 µM
O=C(Nc1ccc(N2CCN(C(=O)c3ccccc3F)CC2)cc1)c1cccc(Br)c1 | 42.6 µM | 18.1 µM | 18.3 µM | 21.5 µM | > 66 µM | > 66 µM | > 66 µM | > 66 µM | 56 µM | > 66 µM | > 66 µM | > 66 µM | > 66 µM | > 66 µM | > 66 µM | > 66 µM | > 66 µM | > 66 µM | > 66 µM | > 66 µM | IC50 ([2]; IL8, TNFa-induced, run 6): 6.25 µM
O=C(Nc1ccc(N2CCN(C(=O)c3ccccc3)CC2)cc1)c1ccccc1 | 50.5 µM | 30.5 µM | 31.9 µM | 42.5 µM | > 66 µM | > 66 µM | > 66 µM | > 66 µM | > 66 µM | > 66 µM | > 66 µM | > 66 µM | > 66 µM | > 66 µM | > 66 µM | > 66 µM | > 66 µM | > 66 µM | > 66 µM | > 66 µM | IC50 ([2]; IL8, TNFa-induced, run 6): > 66 µM
O=C(Nc1ccc(N2CCN(C(=O)c3ccccc3F)CC2)cc1)c1ccccc1 | 37.5 µM | 8.36 µM | 9.34 µM | 9.4 µM | > 66 µM | > 66 µM | > 66 µM | > 66 µM | 55.7 µM | > 66 µM | > 66 µM | > 66 µM | > 66 µM | > 66 µM | > 66 µM | > 66 µM | > 66 µM | 4.29 µM | > 66 µM | > 66 µM | IC50 ([2]; IL8, TNFa-induced, run 6): > 66 µM
O=C(Nc1ccc(N2CCN(C(=O)c3ccc(F)cc3)CC2)cc1)c1cncc(Br)c1 | 3.01 µM | 2.5 µM | 3.02 µM | 3.34 µM | 2.31 µM | 3.07 µM | 3.82 µM | 9.52 µM | 50 µM | 8.79 µM | 9.88 µM | 24.9 µM | 2.03 µM | 3.53 µM | 7.95 µM | > 66 µM | > 66 µM | > 66 µM | > 66 µM | 10.3 µM | IC50 ([2]; IL8, TNFa-induced, run 6): 25.4 µM
O=C(Nc1ccc(N2CCN(C(=O)c3ccccc3F)CC2)cc1)c1cccnc1 | 29 µM | 6.4 µM | 8.28 µM | 8.83 µM | > 66 µM | > 66 µM | 18.3 µM | 61.3 µM | > 66 µM | > 66 µM | > 66 µM | > 66 µM | > 66 µM | > 66 µM | 37.8 µM | > 66 µM | > 66 µM | > 66 µM | > 66 µM | > 66 µM | IC50 ([2]; IL8, TNFa-induced, run 6): > 66 µM
